In PubChem BioAssay AID1918994 (Molecular Pharmacology Branch, DTP, NCI, 2023):

System: 292921-168-R-J2-PDC complex spheroid growth
Test: Anticancer human tumor 292921-168-R-J2-PDC patient-derived pancreatic carcinoma cell line growth inhibition [AhR]
Conditions: for IC50: curve of first compound; for viability, T/C: stronger effect = lower value
In short: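 Agents were dosed in half-log steps down from roughly clinical Cmax, or from 10 microM where Cmax was unknown, alone and with AhR antagonists. Read-out: percent test/control growth of tumor spheroids containing HUVEC and MSC stromal cells.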

[1] = second compound 0.1 µM, first compound 0.0316 µM
[2] = second compound 0.1 µM, first compound 0.1 µM
[3] = second compound 0.1 µM, first compound 0.316 µM
[4] = second compound 0.1 µM, first compound 1 µM
[5] = second compound 0.316 µM, first compound 0.0316 µM
[6] = second compound 0.316 µM, first compound 0.1 µM
[7] = second compound 0.316 µM, first compound 0.316 µM
[8] = second compound 0.316 µM, first compound 1 µM
[9] = second compound 1 µM, first compound 0.0316 µM
[10] = second compound 1 µM, first compound 0.1 µM
[11] = second compound 1 µM, first compound 0.316 µM
[12] = second compound 1 µM, first compound 1 µM
[13] = second compound 3.16 µM, first compound 0.0316 µM
[14] = second compound 3.16 µM, first compound 0.1 µM
[15] = second compound 3.16 µM, first compound 0.316 µM
[16] = second compound 3.16 µM, first compound 1 µM
[17] = second compound 10 µM, first compound 0.0316 µM
[18] = second compound 10 µM, first compound 0.1 µM
[19] = second compound 10 µM, first compound 0.316 µM
[20] = second compound 10 µM, first compound 1 µM
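Further: spheroids exposed to compounds for seven days after three days of growth.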

| IC50 (second compound 0.1 µM) | IC50 (second compound 0.316 µM) | IC50 (second compound 1 µM) | IC50 (second compound 3.16 µM) | IC50 (second compound 10 µM) | SMILES | viability, T/C [1] | viability, T/C [2] | viability, T/C [3] | viability, T/C [4] | viability, T/C [5] | viability, T/C [6] | viability, T/C [7] | viability, T/C [8] | viability, T/C [9] | viability, T/C [10] | viability, T/C [11] | viability, T/C [12] | viability, T/C [13] | viability, T/C [14] | viability, T/C [15] | also measured |
| --- | --- | --- | --- | --- | --- | --- | --- | --- | --- | --- | --- | --- | --- | --- | --- | --- | --- | --- | --- | --- | --- |
| 0.048 µM | 0.0434 µM | 0.0408 µM | 0.0321 µM | < 0.00316 µM | CC1COCCN1c1cc(-c2ccnn2C)c2ccnc(-c3ccn[nH]3)c2n1 (stereo not given) + Cc1cncc(-c2nc(NCCc3c[nH]c4ccccc34)c3ncn(C(C)C)c3n2)c1 | 60% | 31.8% | 22.5% | 18.1% | 56.8% | 32.7% | 18.7% | 17% | 55.2% | 30% | 18.7% | 17.1% | 49.7% | 25.4% | 17.9% | viability, T/C (second compound 0.1 µM, first compound 0.00316 µM): 87.5%; viability, T/C (second compound 0.1 µM, first compound 0.01 µM): 82.6%; viability, T/C (second compound 0.316 µM, first compound 0.00316 µM): 88.3%; viability, T/C (second compound 0.316 µM, first compound 0.01 µM): 78.6%; viability, T/C (second compound 1 µM, first compound 0.00316 µM): 74.5%; viability, T/C (second compound 1 µM, first compound 0.01 µM): 73%; viability, T/C (second compound 3.16 µM, first compound 0.00316 µM): 60.3%; viability, T/C (second compound 3.16 µM, first compound 0.01 µM): 64.1%; viability, T/C [16]: 17.9%; viability, T/C (second compound 10 µM, first compound 0.00316 µM): 41%; viability, T/C (second compound 10 µM, first compound 0.01 µM): 48.1%; viability, T/C [17]: 44.9%; viability, T/C [18]: 33.2%; viability, T/C [19]: 25.8%; viability, T/C [20]: 22.2% |
| 3.61 µM | 3 µM | 2.58 µM | 1.94 µM | 0.0316 µM | CC1COCCN1c1cc(C2(S(C)(=N)=O)CC2)nc(-c2ccnc3[nH]ccc23)n1 (stereo not given) + Cc1cncc(-c2nc(NCCc3c[nH]c4ccccc34)c3ncn(C(C)C)c3n2)c1 | 89.8% | 87.6% | 95.8% | 76.9% | 86.5% | 80.5% | 73.3% | 80.2% | 77.2% | 80.6% | 88.4% | 70% | 63.3% | 63.3% | 66.9% | viability, T/C (second compound 0.1 µM, first compound 3.16 µM): 54.2%; viability, T/C (second compound 0.1 µM, first compound 10 µM): 24.7%; viability, T/C (second compound 0.316 µM, first compound 3.16 µM): 48.6%; viability, T/C (second compound 0.316 µM, first compound 10 µM): 24.7%; viability, T/C (second compound 1 µM, first compound 3.16 µM): 45.9%; viability, T/C (second compound 1 µM, first compound 10 µM): 24.5%; viability, T/C [16]: 59.6%; viability, T/C (second compound 3.16 µM, first compound 3.16 µM): 42.6%; viability, T/C (second compound 3.16 µM, first compound 10 µM): 25.4%; viability, T/C [17]: 48.6%; viability, T/C [18]: 45.9%; viability, T/C [19]: 50%; viability, T/C [20]: 50.4%; viability, T/C (second compound 10 µM, first compound 3.16 µM): 38.8%; viability, T/C (second compound 10 µM, first compound 10 µM): 29.4% |
